Measured values as given in PubChem BioAssay AID2060912 (Molecular Pharmacology Branch, DTP, NCI, 2025).

Tested on: HUVEC/MSC spheroids viability
Assay: Human HUVEC/MSC cell line growth inhibition [KRAS2];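 on viability, T/C: percent of DMSO vehicle control luminescence so 100% = untreated viability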
Conditions: for IC50: curve of first compound; for viability, T/C: stronger effect = lower value
Method in brief: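 Stroma-only multicellular spheroids, formed from HUVEC and human MSCs at passages </=5, received RAS-pathway inhibitors with or without a second targeted drug. Dosing followed half-log dilutions from clinically achievable levels.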

[1] = second compound 0.0316 µM, first compound 0.0316 µM
[2] = second compound 0.0316 µM, first compound 0.1 µM
[3] = second compound 0.0316 µM, first compound 0.316 µM
[4] = second compound 0.0316 µM, first compound 1 µM
[5] = second compound 0.1 µM, first compound 0.0316 µM
[6] = second compound 0.1 µM, first compound 0.1 µM
[7] = second compound 0.1 µM, first compound 0.316 µM
[8] = second compound 0.1 µM, first compound 1 µM
[9] = second compound 0.316 µM, first compound 0.0316 µM
[10] = second compound 0.316 µM, first compound 0.1 µM
[11] = second compound 0.316 µM, first compound 0.316 µM
[12] = second compound 0.316 µM, first compound 1 µM
[13] = second compound 1 µM, first compound 0.0316 µM
[14] = second compound 1 µM, first compound 0.1 µM
[15] = second compound 1 µM, first compound 0.316 µM
[16] = second compound 1 µM, first compound 1 µM
[17] = second compound 3.16 µM, first compound 0.0316 µM
[18] = second compound 3.16 µM, first compound 0.1 µM
[19] = second compound 3.16 µM, first compound 0.316 µM
[20] = second compound 3.16 µM, first compound 1 µM
[21] = second compound 10 µM, first compound 0.0316 µM
[22] = second compound 10 µM, first compound 0.1 µM
[23] = second compound 10 µM, first compound 0.316 µM
[24] = second compound 10 µM, first compound 1 µM

SMILES: CC1COCCN1c1cc(-c2ccnn2C)c2ccnc(-c3ccn[nH]3)c2n1 (stereo unspecified) + CC1OCC2(CCN(c3cnc(Sc4ccnc(N)c4Cl)c(N)n3)CC2)C1N
- IC50 (second compound 0.0316 µM): > 3 µM
- IC50 (second compound 0.1 µM): 2.64 µM
- IC50 (second compound 0.316 µM): 1.9 µM
- IC50 (second compound 1 µM): 2.05 µM
- IC50 (second compound 3.16 µM): 0.679 µM
- IC50 (second compound 10 µM): 0.76 µM
- viability, T/C (second compound 0.0316 µM, first compound 0.00949 µM): 97.8%
- viability, T/C (second compound 0.0316 µM, first compound 0.03 µM): 99.4%
- viability, T/C (second compound 0.0316 µM, first compound 0.0949 µM): 82.6%
- viability, T/C (second compound 0.0316 µM, first compound 0.3 µM): 72.4%
- viability, T/C (second compound 0.0316 µM, first compound 0.949 µM): 64.5%
- viability, T/C (second compound 0.0316 µM, first compound 3 µM): 51.5%
- viability, T/C (second compound 0.1 µM, first compound 0.00949 µM): 95.8%
- viability, T/C (second compound 0.1 µM, first compound 0.03 µM): 95.7%
- viability, T/C (second compound 0.1 µM, first compound 0.0949 µM): 83.4%
- viability, T/C (second compound 0.1 µM, first compound 0.3 µM): 80.4%
- viability, T/C (second compound 0.1 µM, first compound 0.949 µM): 62.1%
- viability, T/C (second compound 0.1 µM, first compound 3 µM): 48.6%
- viability, T/C (second compound 0.316 µM, first compound 0.00949 µM): 105%
- viability, T/C (second compound 0.316 µM, first compound 0.03 µM): 101%
- viability, T/C (second compound 0.316 µM, first compound 0.0949 µM): 78.9%
- viability, T/C (second compound 0.316 µM, first compound 0.3 µM): 64.3%
- viability, T/C (second compound 0.316 µM, first compound 0.949 µM): 55.3%
- viability, T/C (second compound 0.316 µM, first compound 3 µM): 46.4%
- viability, T/C (second compound 1 µM, first compound 0.00949 µM): 82.6%
- viability, T/C (second compound 1 µM, first compound 0.03 µM): 94.7%
- viability, T/C (second compound 1 µM, first compound 0.0949 µM): 78.3%
- viability, T/C (second compound 1 µM, first compound 0.3 µM): 74.5%
- viability, T/C (second compound 1 µM, first compound 0.949 µM): 61.6%
- viability, T/C (second compound 1 µM, first compound 3 µM): 44.4%
- viability, T/C (second compound 3.16 µM, first compound 0.00949 µM): 84.7%
- viability, T/C (second compound 3.16 µM, first compound 0.03 µM): 90.5%
- viability, T/C (second compound 3.16 µM, first compound 0.0949 µM): 69.1%
- viability, T/C (second compound 3.16 µM, first compound 0.3 µM): 63.7%
- viability, T/C (second compound 3.16 µM, first compound 0.949 µM): 45%
- viability, T/C (second compound 3.16 µM, first compound 3 µM): 32.9%
- viability, T/C (second compound 10 µM, first compound 0.00949 µM): 56.2%
- viability, T/C (second compound 10 µM, first compound 0.03 µM): 65.5%
- viability, T/C (second compound 10 µM, first compound 0.0949 µM): 61.7%
- viability, T/C (second compound 10 µM, first compound 0.3 µM): 58.2%
- viability, T/C (second compound 10 µM, first compound 0.949 µM): 48%
- viability, T/C (second compound 10 µM, first compound 3 µM): 24.7%

SMILES: CCN1CCN(Cc2ccc(Nc3ncc(F)c(-c4cc(F)c5nc(C)n(C(C)C)c5c4)n3)nc2)CC1 + CC1OCC2(CCN(c3cnc(Sc4ccnc(N)c4Cl)c(N)n3)CC2)C1N
- IC50 (second compound 0.0316 µM): > 1 µM
- IC50 (second compound 0.1 µM): > 1 µM
- IC50 (second compound 0.316 µM): > 1 µM
- IC50 (second compound 1 µM): > 1 µM
- IC50 (second compound 3.16 µM): > 1 µM
- IC50 (second compound 10 µM): > 1 µM
- viability, T/C (second compound 0.0316 µM, first compound 0.00316 µM): 105%
- viability, T/C (second compound 0.0316 µM, first compound 0.01 µM): 105%
- viability, T/C [1]: 95.6%
- viability, T/C [2]: 111%
- viability, T/C [3]: 124%
- viability, T/C [4]: 121%
- viability, T/C (second compound 0.1 µM, first compound 0.00316 µM): 111%
- viability, T/C (second compound 0.1 µM, first compound 0.01 µM): 105%
- viability, T/C [5]: 117%
- viability, T/C [6]: 93.4%
- viability, T/C [7]: 123%
- viability, T/C [8]: 114%
- viability, T/C (second compound 0.316 µM, first compound 0.00316 µM): 108%
- viability, T/C (second compound 0.316 µM, first compound 0.01 µM): 108%
- viability, T/C [9]: 102%
- viability, T/C [10]: 96.9%
- viability, T/C [11]: 117%
- viability, T/C [12]: 114%
- viability, T/C (second compound 1 µM, first compound 0.00316 µM): 94.3%
- viability, T/C (second compound 1 µM, first compound 0.01 µM): 95.9%
- viability, T/C [13]: 85.6%
- viability, T/C [14]: 96%
- viability, T/C [15]: 102%
- viability, T/C [16]: 114%
- viability, T/C (second compound 3.16 µM, first compound 0.00316 µM): 81.1%
- viability, T/C (second compound 3.16 µM, first compound 0.01 µM): 84.8%
- viability, T/C [17]: 88.2%
- viability, T/C [18]: 80%
- viability, T/C [19]: 96.2%
- viability, T/C [20]: 87.2%
- viability, T/C (second compound 10 µM, first compound 0.00316 µM): 74.8%
- viability, T/C (second compound 10 µM, first compound 0.01 µM): 66%
- viability, T/C [21]: 67.2%
- viability, T/C [22]: 62.3%
- viability, T/C [23]: 84.1%
- viability, T/C [24]: 91.2%

SMILES: CCNC(=O)CC1N=C(c2ccc(Cl)cc2)c2cc(OC)ccc2-n2c(C)nnc21 (stereo unspecified) + CC1OCC2(CCN(c3cnc(Sc4ccnc(N)c4Cl)c(N)n3)CC2)C1N
- IC50 (second compound 0.0316 µM): > 10 µM
- IC50 (second compound 0.1 µM): > 10 µM
- IC50 (second compound 0.316 µM): > 10 µM
- IC50 (second compound 1 µM): > 10 µM
- IC50 (second compound 3.16 µM): > 10 µM
- IC50 (second compound 10 µM): 3.02 µM
- viability, T/C [1]: 79.7%
- viability, T/C [2]: 102%
- viability, T/C [3]: 99.2%
- viability, T/C [4]: 87.5%
- viability, T/C (second compound 0.0316 µM, first compound 3.16 µM): 110%
- viability, T/C (second compound 0.0316 µM, first compound 10 µM): 89.4%
- viability, T/C [5]: 107%
- viability, T/C [6]: 86.2%
- viability, T/C [7]: 102%
- viability, T/C [8]: 91.8%
- viability, T/C (second compound 0.1 µM, first compound 3.16 µM): 99%
- viability, T/C (second compound 0.1 µM, first compound 10 µM): 95.3%
- viability, T/C [9]: 90.6%
- viability, T/C [10]: 88.6%
- viability, T/C [11]: 87.1%
- viability, T/C [12]: 88.2%
- viability, T/C (second compound 0.316 µM, first compound 3.16 µM): 88%
- viability, T/C (second compound 0.316 µM, first compound 10 µM): 84.1%
- viability, T/C [13]: 79.3%
- viability, T/C [14]: 97.8%
- viability, T/C [15]: 76.6%
- viability, T/C [16]: 68.4%
- viability, T/C (second compound 1 µM, first compound 3.16 µM): 77.2%
- viability, T/C (second compound 1 µM, first compound 10 µM): 58.8%
- viability, T/C [17]: 83.5%
- viability, T/C [18]: 103%
- viability, T/C [19]: 81.4%
- viability, T/C [20]: 73.8%
- viability, T/C (second compound 3.16 µM, first compound 3.16 µM): 66%
- viability, T/C (second compound 3.16 µM, first compound 10 µM): 51.3%
- viability, T/C [21]: 66%
- viability, T/C [22]: 64.5%
- viability, T/C [23]: 77.8%
- viability, T/C [24]: 64%
- viability, T/C (second compound 10 µM, first compound 3.16 µM): 49.6%
- viability, T/C (second compound 10 µM, first compound 10 µM): 30%
